The values below come from US5126057A, “Disinfecting with N,N'-dihaloimidazolidin-4-ones” (Auburn Research Foundation, priority 1991, dated 1992).

One data set in a line: physchem. In kind it is physicochemical. The procedure: In method (a) 47.4 grams (0.3 mole) of 2,2,5,5-tetramethylimidazolidine-4-thione was dissolved in 1.2 liters of 3 Normal sodium hydroxide solution (3.6 moles) in a 2 liter flask. The flask and its contents were cooled to 5° C. using an ice bath, and chlorine gas was bubbled into the mixture while stirring until the pH of the solution reached 7.0. The temperature of the mixture was not allowed to rise above 10° C. during this process. The N,N'-dichloroimidazolidin-4-one product precipitated as a white solid. Following addition of 800 milliliters of water to the flask, the solid product was recovered by suction filtration. The product was then purified by dissolving it in hexane, allowing the impurities and remaining water to settle, and recovery by evaporation of the volatile hexane layer which was separated from the impurity/water layer. The product yield was 53.9 grams or 85% of that theoretically expected. Elemental analysis of the product (1,3-dichloro-2,2,5,5-tetramethylimidazolidin-4-one) gave the following results: (calculated/found) % carbon 39.82/39.86, % hydrogen 5.73/5.50, % nitrogen 13.27/13.24, and % chlorine 33.59/32.88. […] Analysis of the product by proton NMR and infrared spectroscopy yielded the following results:
5.1 Grams (0.036 mole) of 2,2,5,5-tetramethylimidazolidin-4-one prepared as in example 2 was dissolved in 88 milliliters of 1 Normal sodium hydroxide solution (0.088 mole) in a 250 milliliter flask. While maintaining this mixture at 10° C. or below using an ice bath and stirring, 12.8 grams (0.08 mole) of liquid bromine was added dropwise. The product 1,3-dibromo-2,2,5,5-tetramethylimidazolidin-4-one precipitated from the mixture as a pale yellow solid. The product was recovered by suction filtration and purified by recrystallization from hexane. The product yield was 9.2 grams or 85% of that theoretically expected. Elemental analysis of the product (1,3-dibromo-2,2,5,5-tetramethylimidazolidin-4-one) gave the following results: (calculated/found) % carbon 28.00/27.80, % hydrogen 4.00/4.07, % nitrogen 9.33/9.39, and % bromine 53.33/52.09. […] Analysis of the product by proton NMR and infrared spectroscopy yielded the following results:
6.4 Grams (0.045 mole) of 2,2,5,5-tetramethylimidazolidin-4-one prepared as in example 2 was dissolved in 55 milliliters of 1 Normal sodium hydroxide solution (0.055 mole) in a 250 milliliter flask. While maintaining the reaction mixture at a temperature of 5°-10° C. by use of an ice bath and stirring, 4.0 grams (0.025 mole) of liquid bromine was added dropwise. The reaction mixture was stirred at ice bath temperature for an additional 1 hour and then for 1-2 hours at cold water bath conditions (10°-20° C.). Following cooling the mixture below 10° C. again, 50 milliliters of 1 Normal sodium hydroxide solution (0.05 mole) was added, and chlorine gas was bubbled in while stirring at 5°-10° C. until the pH reached 6-7. The 1-bromo-3-chloro-2,2,5,5-tetramethylimidazolidin-4-one product precipitated as a white solid. The product was recovered by suction filtration and purified by recrystallization from hexane. The product yield was 11.2 grams or 97% of that theoretically expected. Elemental analysis of the product gave the following results: (calculated/found) % carbon 32.88/32.68, % hydrogen 4.70/4.74, % nitrogen 10.96/10.83, % bromine 31.31/33.37, % chlorine 13.89/12.67. The rather high and low found values as compared to the theoretical values for bromine and chlorine, respectively, indicate that the product was contaminated with a small amount of 1,3-dibromo-2,2,5,5-tetramethylimidazolidin-4-one. […] Analysis of the product by proton NMR and infrared spectroscopy yielded the following results: […]

Data set [1] is described as follows: Hydrolysis equilibrium constant in demand-free water. In kind it is physicochemical. To be noted: pH 7.0, 24°±1° C. The procedure: The equilibrium constant for the hydrolysis reaction of 1,3-dichloro-2,2,5,5-tetramethylimidazolidin-4-one to form 1-chloro-2,2,5,5-tetramethylimidazolidin-4-one and free chlorine (Cl^+) was determined at pH 7.0 and 24°±1° C. This was accomplished by preparing a solution of the 1,3-dichloro-2,2,5,5-tetramethylimidazolidin-4-one in demand-free 0.05 molar sodium phosphate buffer (pH 7.0) and allowing the solution to equilibrate while stirring for 1 hour. Then the DPD/FAS technique (as in example 7) was used to determine the free and total chlorine concentrations in the equilibrated solution. The concentration of combined 1,3-dichloro-2,2,5,5-tetramethylimidazolidin-4-one was calculated from the difference between the measured total and free chlorine concentrations. The hydrolysis equilibrium constant was then calculated as the square of the molar free chlorine concentration divided by the molar combined chlorine concentration. For a starting molar total chlorine concentration of 4.441×10^-3 moles per liter, at equilibrium the combined chlorine concentration was 4.428×10^-3 moles per liter, and the free chlorine concentration was 1.269×10^-5 moles per liter. […] For a starting molar total chlorine concentration of 1.764×10^-3 moles per liter, at equilibrium the combined chlorine concentration was 1.759×10^-3 moles per liter, and the free chlorine concentration was 5.360×10^-6 moles per liter. […] The average equilibrium constant for the two separate determinations was thus 2.6±1.0×10^-8.

Data set [2] can be described thus: Formation of N-halogenated imidazolidin-4-ones in situ (loss of free chlorine, DPD/FAS). The note with it: for reaction with free chlorine: pH 7.0, 24°±1° C. Type of data set: physicochemical. As to the method: An aqueous solution containing 50.0 milligrams (3.52×10^-4 moles) of 2,2,5,5-tetramethylimidazolidin-4-one synthesized as in example 2 in 50.0 milliliters of 0.05 molar sodium phosphate buffer (pH 7.0) was prepared. The buffer solution had been made halogen demand-free by chlorination with 3 milligrams per liter total chlorine from sodium hypochlorite followed by exposure to direct sunlight for two days until no titratable chlorine remained. A halogen demand-free solution of free chlorine buffered to pH 7.0 was prepared by bubbling chlorine gas into a flask containing the demand-free buffered water. Then 19 milliliters of the solution containing 1.31 grams per liter of free chlorine (7.02×10^-4 moles of positive halogen) was added to the solution containing the 2,2,5,5-tetramethylimidazolidin-4-one at ambient temperature (24°±1° C.) while stirring.
The reaction rate for formation of 1,3-dichloro-2,2,5,5-tetramethylimidazolidin-4-one and/or 1-chloro-2,2,5,5-tetramethylimidazolidin-4-one in situ was then followed kinetically by observing the loss of free chlorine concentration from the reaction mixture as a function of time. The concentration of free chlorine was monitored by withdrawing aliquots from the mixture periodically and titrating them by the DPD/FAS (N,N-diethyl-p-phenylenediamine/ferrous ammonium sulfate) method as described in "Standard Methods for the Examination of Water and Wastewater, 16th edition, American Public Health Association, Washington, D. C., 1985, pp. 306-309. The moles of free chlorine present in the reaction mixture declined from 7.02×10^-4 at the time of mixing to 4.45×10^-5 after only 48 seconds representing 94% reaction. Then further declination of free chlorine occurred to 3.63×10^-5 moles after 2.87 minutes, 3.48×10^-5 moles after 6.07 minutes, and 3.32×10^-5 moles after 114.6 minutes. Thus after 114.6 minutes 95% of the reaction had occurred. At this time 1.76×10^-5 additional moles of 2,2,5,5-tetramethylimidazolidin-4-one was added, and the concentration of free chlorine declined to zero by 140 minutes total elapsed time.

For data set [3] the following is noted: cited from earlier work.
Data set [4] in a line: Stability of unhalogenated 2,2,5,5-tetramethylimidazolidin-4-one in water exposed to direct sunlight. Type of data set: physicochemical. As to the method: A solution containing 142 milligrams (1.00×10^-3 moles) of 2,2,5,5-tetramethylimidazolidin-4-one (Compound 6) in 1.0 liter of demand-free water buffered to pH 7.0 was prepared. 100 milliliter samples (1.00×10^-4 moles of Compound 6) of this solution were placed in each of five 100 milliliter volumetric flasks. The flasks were sealed with ground glass stoppers and placed in direct sunlight on the roof of the chemistry building at Auburn University during the period Jul. 6, 1989 to Aug. 2, 1989. No effort was made to control the temperature in this experiment; it was typically 33° C. during this period. […]
After allowing the reaction of Compound 6 with free chlorine to form a mixture of 1,3-dichloro-2,2,5,5-tetramethylimidazolidin-4-one (Compound 1) and 1-chloro-2,2,5,5-tetramethylimidazolidin-4-one (Compound 3) to proceed with stirring over a period of 1 hour, aliquots were analyzed for total and free chlorine using the DPD-FAS procedure mentioned in example 8. The combined chlorine concentration was assumed to be the difference between the determined total and free chlorine concentrations, and to represent the amounts of compounds 1 and 3 forming during the reaction.

Where [5] appears, read: starting total chlorine 1.764×10^-3 moles per liter.
[6] abbreviates: starting total chlorine 4.441×10^-3 moles per liter.

≈ marks a conversion by molar mass, not a printed value. Where two headings read alike, the source gives them in different places.

Turning to `CC1(C)C(=O)N(Cl)C(C)(C)N1Cl` [1,3-dichloro-2,2,5,5-tetramethylimidazolidin-4-one], in the data set “physchem”, the solubility in water is on record as 0.224 grams in 100 milliliters of water. The solubility in “physchem” (water, solubility in water) worked out at 1380 µg/mL (≈ 6.54 mM). Also, the “average hydrolysis equilibrium constant” value in data set [1] (average of two determinations) is listed as 2.6±1.0×10^-8. In data set [1] (setting [5]), the “combined chlorine concentration at equilibrium” value is given as 1.759×10^-3 moles per liter, the “free chlorine concentration at equilibrium” value is reported as 5.360×10^-6 moles per liter and the hydrolysis equilibrium constant is 1.63×10^-8. In data set [1] (setting [6]), the “combined chlorine concentration at equilibrium” value is 4.428×10^-3 moles per liter, the “free chlorine concentration at equilibrium” value is 1.269×10^-5 moles per liter and the hydrolysis equilibrium constant is on record as 3.64×10^-8.
For `CC1(C)NC(=O)C(C)(C)N1` [2,2,5,5-tetramethylimidazolidin-4-one], the “reaction with free chlorine” value in data set [2] (48 seconds) is 94%; in data set [2] (114.6 minutes), 95%. In data set [2] (free chlorine added to pH 7.0 demand-free water), the “time for in situ formation of halogenated imidazolidin-4-ones” value is listed as “less than 1 minute”.
Consider `CC1(C)COC(=O)N1Cl` [3-chloro-4,4-dimethyl-2-oxazolidinone], for which the hydrolysis equilibrium constant in data set [3] (reported by Williams, Elder and Worley, 1988) is listed as 2.3×10^-9.
As to `CC1(C)NC(=O)C(C)(C)N1` [Compound 6, 2,2,5,5-tetramethylimidazolidin-4-one], in data set [4] (4 weeks direct sunlight, DFW pH 7.0, typically 33° C., then reacted with free chlorine), the “variation of combined chlorine concentration” value is listed as at most 6%. Also, the “time for which stable in direct sunlight” value in data set [4] (DFW, pH 7.0, direct sunlight) was “at least 4 weeks”.
As for `O=c1n(Cl)c(=O)n(Cl)c(=O)n1Cl` [trichloroisocyanuric acid], the hydrolysis equilibrium constant in data set [3] (reported by G. D. Nelson, Kirk-Othmer 1979) is 1.6×10^-4.
